This note sets out measurements from patent US9062045B2, “Triazolopyridine compounds” (Novartis AG, priority 2012, dated 2015).

The target of assay [1] is c-Met receptor tyrosine kinase, GST-c-MET (969-1390) (Homo sapiens (Human), UniProt P08581). Particulars: read-out: c-Met Biochem IC50; 2 μM ATP, 60 minutes at room temperature.
Experimental: A number of compounds of the present invention were assayed in an antibody based kinase phosphorylation assay as follows.
The EPK kinase assay for c-Met receptor tyrosine kinase was developed, using the purified recombinant GST-fusion protein, containing the cytoplasmic domain of the enzyme.
The kinase assay is based on the LanthaScreen™ technology.
The kinase reactions were performed in 384 well microtiter plates in a total reaction volume of 10.05 μL. The assay plates were prepared with 0.05 μL per well of test compound in the appropriate test concentration, as described under “preparation of compound dilutions”. The reactions were started by combining 5 μL of ATP solution with 5 μL of enzyme-substrate mix (consisting of kinase and substrate). […] Subsequently 5 μL of detection mix (50 mM Tris/HCl, 2 mM DTT, 0.05% Tween20, 20 μM sodium orthovanadate, 1% BSA, 1 nM Tb-PY20 antibody) were added to the stopped reactions. After 45 minutes incubation in dark at room temperature, the plates were measured in a Perkinelmer Envision fluorescence reader.
The target in another assay is human platelet PDE3 (Homo sapiens (Human), UniProt Q14432). As to the kind of experiment: hPDE3 assay ([3H]cAMP scintillation proximity assay). The format is biochemical. Particulars: human platelet PDE3. The text has this: Here, compounds of formula I were screened for their ability to inhibit human PDE3 in the assay based on Amersham Pharmacia Biotech's Phosphodiesterase (PDE) [^3H]-adenosine 3′,5′ cyclic phosphate ([^3H]cAMP) Scintillation Proximity Assay (SPA). The assay is based on the hydrolysis of [^3H]cAMP, by human platelet PDE3, to [^3H]5′-adenoside monophosphate (5′-AMP). The [^3H]5′-AMP is specifically captured by yttrium silicate SPA beads in the presence of zinc sulphate.
• Optiplate and TopSeal-S (Can berra Packard) • Human platelet PDE3 (partially purified from human platelets)—a titration curve of human platelet PDE3 activity was performed to optimise the concentration of hPDE3 required in the assay. • Yttrium silicate SPA beads and [^3H]cAMP (Amersham) • Tris-Base, magnesium chloride, ethylenediaminetetraacetic acid (di-sodium salt), bovine serum albumin BSA and cAMP (Sigma) Solutions and Buffers: • Assay buffer: 7.56 g Tris-Base was dissolved in approximately 800 mL distilled water and the pH adjusted to 7.5 with 1 M hydrochloric acid. 10.3 mL 1 M magnesium chloride and 4.25 mL 0.5 M EDTA were added. The solution was made to 1 L with distilled water and stored at 4° C. On day of use 18 mL of the above solution was removed and 2 mL 5 mg/ml BSA were added thereto. • Enzyme buffer: 10 mM Tris-HCl at pH 7.5, 1 mM EDTA • Yttrium silicate SPA beads: 1 vial was reconstituted in 28 mL distilled water and stored at 4° C. Assay
The assay was performed in a final volume of 100 μL per well of an Optiplate (Canberra Packard). A 10 μL aliquot of the test compound dissolved in DMSO/distilled water was placed in a well of an Optiplate plate, followed by the addition of 80 μL ‘Assay mix’ (5.5 μL [^3H]cAMP and 88 μL “cold” cAMP were diluted to 8.8 mL using assay buffer). The reaction was started by adding 10 μL hPDE3 (50 μL stock hPDE3 solution was diluted 50 fold to 2.5 mL using enzyme buffer). The plate was incubated at room temperature for 30 min, the reaction was then terminated by the addition of 50 μL Yttrium silicate SPA beads (pre-warmed to room temperature) to all wells. […] The plate was sealed using TopSeal-S according to the manufacturer's instructions and counted using a Packard TopCount, each well being counted for 1 min. IC50 values were determined using non-linear regression.
(In general: Scintillation proximity formats need no separation of bound from free tracer.)

The subject of a further assay is GTL16 cells. Briefly: GTL16 cell viability assay (CellTiter Glo). The following applies: read-out: GTL-16 Proliferation IC50; GTL16 cells, 24 hours. In general terms: ATP-based viability assays read luminescence as a measure of living cells.

Molecules are shown by their SMILES.

c-Met receptor tyrosine kinase, GST-c-MET (969-1390), sequence (P08581 969-1390): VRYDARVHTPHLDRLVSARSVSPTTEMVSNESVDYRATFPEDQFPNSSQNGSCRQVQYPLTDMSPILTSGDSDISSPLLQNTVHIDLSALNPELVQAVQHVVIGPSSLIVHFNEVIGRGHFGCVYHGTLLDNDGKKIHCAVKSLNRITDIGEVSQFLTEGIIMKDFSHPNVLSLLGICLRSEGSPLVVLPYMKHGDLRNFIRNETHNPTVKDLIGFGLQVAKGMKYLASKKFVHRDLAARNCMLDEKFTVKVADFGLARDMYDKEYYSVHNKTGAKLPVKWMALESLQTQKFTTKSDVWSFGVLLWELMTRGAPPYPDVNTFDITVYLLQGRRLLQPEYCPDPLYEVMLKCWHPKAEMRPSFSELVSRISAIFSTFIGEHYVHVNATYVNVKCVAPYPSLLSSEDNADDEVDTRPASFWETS
human platelet PDE3, sequence (Q14432 whole entry): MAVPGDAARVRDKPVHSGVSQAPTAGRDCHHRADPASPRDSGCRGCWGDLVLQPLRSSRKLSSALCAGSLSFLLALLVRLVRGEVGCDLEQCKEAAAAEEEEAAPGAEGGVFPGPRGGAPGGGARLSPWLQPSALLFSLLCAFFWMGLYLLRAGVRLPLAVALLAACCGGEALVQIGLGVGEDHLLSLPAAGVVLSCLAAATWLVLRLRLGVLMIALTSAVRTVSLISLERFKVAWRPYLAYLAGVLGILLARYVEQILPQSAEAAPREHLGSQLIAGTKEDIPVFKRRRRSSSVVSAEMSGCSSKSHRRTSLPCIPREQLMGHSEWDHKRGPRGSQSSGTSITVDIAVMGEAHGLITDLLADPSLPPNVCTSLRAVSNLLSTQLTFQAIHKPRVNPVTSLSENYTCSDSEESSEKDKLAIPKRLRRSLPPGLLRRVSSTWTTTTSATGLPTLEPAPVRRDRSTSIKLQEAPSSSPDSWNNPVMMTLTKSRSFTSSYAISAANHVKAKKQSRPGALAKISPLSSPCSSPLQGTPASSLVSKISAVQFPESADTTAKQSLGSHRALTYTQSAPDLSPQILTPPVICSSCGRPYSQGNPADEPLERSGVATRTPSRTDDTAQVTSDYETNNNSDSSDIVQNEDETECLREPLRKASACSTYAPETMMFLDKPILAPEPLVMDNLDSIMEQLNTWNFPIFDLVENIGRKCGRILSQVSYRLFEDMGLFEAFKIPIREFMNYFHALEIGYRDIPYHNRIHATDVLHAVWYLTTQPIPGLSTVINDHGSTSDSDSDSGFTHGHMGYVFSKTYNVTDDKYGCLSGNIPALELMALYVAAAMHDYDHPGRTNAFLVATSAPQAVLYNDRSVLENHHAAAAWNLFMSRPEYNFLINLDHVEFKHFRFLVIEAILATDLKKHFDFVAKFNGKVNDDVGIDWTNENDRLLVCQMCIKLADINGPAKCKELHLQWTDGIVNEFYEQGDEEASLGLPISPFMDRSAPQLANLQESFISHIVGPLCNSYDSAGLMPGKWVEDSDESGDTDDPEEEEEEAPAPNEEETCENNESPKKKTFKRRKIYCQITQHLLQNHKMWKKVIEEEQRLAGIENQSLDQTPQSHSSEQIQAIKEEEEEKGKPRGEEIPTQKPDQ
Experimental for GTL16 cells: GTL16 Cell Viability Assay:
GTL16 expresses high level of c-Met receptor tyrosine kinase due to the gene amplification.
GTL16 cells were seeded in DMEM medium with 10% FBS and 1% Pene. & Strep. at 5000 cells/well/90 μL in 96 well plate and incubated overnight for attachment at 37° C. in 5% CO2 incubator. 10-fold serials dilutions of compounds were added to the cell as 10 μL/well. The final assay volume was 100 μl/well. The assay plates were incubated at 37° C. in 5% CO2 incubator for 24 hours. […] The chemiluminescent light unit was read in Envision from Perkin Elmer. All the tests were run at triplicates. The IC50 was calculated using Spotfire software.

On to `Cn1cc(-c2ccc3nnc(Sc4ccc5ncc(NC6CCN(C(=O)OC(C)(C)C)CC6)cc5c4)n3c2)cn1` [Example 22, tert-Butyl 4-(6-(6-(1-methyl-1H-pyrazol-4-yl)-[1,2,4]triazolo[4,3-a]pyridin-3-ylthio)quinolin-3-ylamino)piperidine-1-carboxylate], for which the IC50 in assay [1] amounted to 0.019 µM; against human platelet PDE3, 15 µM; in the assay with GTL16 cells it was 0.002 µM.
As for `Cn1cc(-c2ccc3nnc(Sc4ccc5ncc(N6CCC(N7CCCCC7)CC6)cc5c4)n3c2)cn1` [Example 30, 3-(1,4′-Bipiperidin-1′-yl)-6-(6-(1-methyl-1H-pyrazol-4-yl)-[1,2,4]triazolo[4,3-a]pyridin-3-ylthio)quinoline], the values for the IC50 (in assay [1]; against human platelet PDE3; with GTL16 cells) were […], 25 µM and […], respectively.
On to `Cn1cc(-c2cc(F)c3nnc(Sc4ccc5ncc(N6CCC(N7CCCCC7)CC6)cc5c4)n3c2)cn1` [Example 31, 3-(1,4′-Bipiperidin-1′-yl)-6-(8-fluoro-6-(1-methyl-1H-pyrazol-4-yl)-[1,2,4]triazolo[4,3-a]pyridin-3-ylthio)quinoline], for which the IC50 in assay [1] came out at 0.003 µM; against human platelet PDE3 it was 30 µM; in the assay with GTL16 cells it was 0.0004 µM.
In the case of `CC1CN(c2cnc3ccc(Sc4nnc5ccc(-c6cnn(C)c6)cn45)cc3c2)CCO1` (centres unmarked) [Example 35, 2-Methyl-4-(6-(6-(1-methyl-1H-pyrazol-4-yl)-[1,2,4]triazolo[4,3-a]pyridin-3-ylthio)quinolin-3-yl)morpholine], the IC50 amounted to 0.004 µM in assay [1] and 0.0004 µM in the assay on GTL16 cells.
On to `C[C@@H]1CN(c2cnc3ccc(Sc4nnc5ccc(-c6cnn(C)c6)cn45)cc3c2)CCO1` [Example 35B, (R)-2-Methyl-4-(6-(6-(1-methyl-1H-pyrazol-4-yl)-[1,2,4]triazolo[4,3-a]pyridin-3-ylthio)quinolin-3-yl)morpholine], for which the IC50 (in assay [1]; in the assay with GTL16 cells) was 0.004 µM each time.
For the molecule `C[C@H]1CNCCN1c1cnc2ccc(Sc3nnc4c(F)cc(-c5cnn(C)c5)cn34)cc2c1` [Example 46, (S)-6-(8-Fluoro-6-(1-methyl-1H-pyrazol-4-yl)-[1,2,4]triazolo[4,3-a]pyridin-3-ylthio)-3-(2-methylpiperazin-1-yl)quinoline], the IC50 in assay [1] was […]; at human platelet PDE3, 30 µM.
Regarding `C/C(=N\OCCO)c1ccc2nnc(Sc3ccc4ncc(NC5CCOCC5)cc4c3)n2c1` [Example 83, (E)-1-(3-(3-(Tetrahydro-2H-pyran-4-ylamino)quinolin-6-ylthio)-[1,2,4]triazolo[4,3-a]pyridin-6-yl)ethanone O-2-hydroxyethyl oxime], the values for the IC50 on human platelet PDE3 and in the assay with GTL16 cells were 20 µM and 0.001 µM, respectively.
For `C/C(=N\O)c1ccc2nnc(Sc3ccc4ncc(NC5CCOCC5)cc4c3)n2c1` [Example 84, (E)-1-(3-(3-(Tetrahydro-2H-pyran-4-ylamino)quinolin-6-ylthio)-[1,2,4]triazolo[4,3-a]pyridin-6-yl)ethanone oxime], the results for the IC50 against human platelet PDE3 and in the assay with GTL16 cells were 6 µM and 0.003 µM, respectively.
For the molecule `C/C(=N\OCCO)c1cc(F)c2nnc(Sc3ccc4ncc(N5CC[C@H](N(C)C)C5)cc4c3)n2c1` [Example 85, (S,E)-1-{3-[3-(3-dimethylamino-pyrrolidin-1-yl)-quinolin-6-ylthio]-8-fluoro-[1,2,4]triazolo[4,3-a]pyridin-6-yl}ethanone O-(2-hydroxy-ethyl)-oxime], the IC50 on human platelet PDE3 is 30 µM; with GTL16 cells it was 0.023 µM.
The like results for `C/C(=N\OCCO)c1ccc2nnc(Sc3ccc4ncc(N5CCN(C)CC5)cc4c3)n2c1` [Example 86, (E)-1-(3-(3-(4-methylpiperazin-1-yl)quinolin-6-ylthio)-[1,2,4]triazolo[4,3-a]pyridin-6-yl)ethanone O-2-hydroxyethyl oxime] were, in that order, 27 µM and 0.051 µM.
